Data as given in ChEMBL document CHEMBL5321277, “Discovery and Mechanism Study of SARS-CoV-2 3C-like Protease Inhibitors with a New Reactive Group” (J Med Chem, 2023).

Experiments:
[1] = molecular target: T1, Replicase polyprotein 1ab (Severe acute respiratory syndrome coronavirus 2, UniProt P0DTD1); experiment: Inhibition of N-terminal His6-tagged recombinant full length SARS-CoV-2 3CLpro expressed in Escherichia coli BL21(DE3) using MCA-AVLQSGFR-Lys(Dnp)-Lys-NH2 as fluorogenic substrate preincubated with compound for 10 mins followed by substrate addition by FRET assay
[2] = molecular target: T1, Replicase polyprotein 1ab; experiment: Inhibition of SARS-CoV-2 PLpro using RLRGG-AMC as fluorogenic substrate preincubated with compound for 30 mins followed by substrate addition by fluorescence based microplate reader assay
Chymotrypsin = Chymotrypsin (Homo sapiens, UniProt Q99895+P17538+P40313+Q6GPI1); experiment: Inhibition of Chymotrypsin (unknown origin) using N-succinyl-AAPF-AMC as fluorogenic substrate preincubated for 10 mins followed by substrate addition and measured for 10 mins by fluorescence based assay; format: protein assay
Cathepsin B = Cathepsin B (Homo sapiens, UniProt P07858); experiment: Inhibition of Cathepsin B (unknown origin) using Z-RR-AMC as fluorogenic substrate preincubated for 10 mins followed by substrate addition and measured for 10 mins by fluorescence based assay
Cathepsin G = molecular target: T2, Cathepsin G (Homo sapiens, UniProt P08311); experiment: Inhibition of Cathepsin G (unknown origin) measured for 1 to 2 hrs by fluorescence based assay
T2 sequence (P08311 whole entry): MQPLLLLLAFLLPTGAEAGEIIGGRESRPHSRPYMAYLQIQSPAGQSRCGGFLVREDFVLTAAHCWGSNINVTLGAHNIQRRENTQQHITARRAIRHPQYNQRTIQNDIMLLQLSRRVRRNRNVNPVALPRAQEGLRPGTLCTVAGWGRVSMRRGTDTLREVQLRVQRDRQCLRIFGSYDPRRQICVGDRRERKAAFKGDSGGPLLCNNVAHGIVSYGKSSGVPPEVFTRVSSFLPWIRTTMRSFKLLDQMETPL

Procathepsin L [3] = molecular target: T3, Procathepsin L (Homo sapiens, UniProt P07711); experiment: Inhibition of Cathepsin L (unknown origin) using Z-VVR-AMC as fluorogenic substrate at 20 uM preincubated for 10 mins followed by substrate addition and measured for 10 mins by fluorescence based assay; conditions: time 20.0 min
Target sequence in this assay (P07711 114-333 limits assumed): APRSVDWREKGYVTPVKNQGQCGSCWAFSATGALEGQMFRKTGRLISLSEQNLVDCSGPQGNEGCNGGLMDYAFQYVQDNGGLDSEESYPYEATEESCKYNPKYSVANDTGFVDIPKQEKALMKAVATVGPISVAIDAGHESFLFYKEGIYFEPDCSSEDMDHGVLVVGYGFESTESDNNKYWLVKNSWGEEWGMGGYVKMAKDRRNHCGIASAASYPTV

Caspase-6 = molecular target: T4, Caspase-6 (Homo sapiens, UniProt P55212); experiment: Inhibition of Caspase-6 (unknown origin)
T4 sequence (P55212 whole entry): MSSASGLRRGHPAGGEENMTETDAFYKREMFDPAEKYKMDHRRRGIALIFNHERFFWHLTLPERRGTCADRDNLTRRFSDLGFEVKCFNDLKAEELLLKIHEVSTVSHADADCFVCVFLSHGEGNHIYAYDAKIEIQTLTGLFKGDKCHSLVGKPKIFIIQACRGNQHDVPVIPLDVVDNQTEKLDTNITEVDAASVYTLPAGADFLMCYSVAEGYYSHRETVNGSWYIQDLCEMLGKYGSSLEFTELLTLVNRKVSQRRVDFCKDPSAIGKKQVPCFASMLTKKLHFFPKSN

[4] = molecular target: T1, Replicase polyprotein 1ab; experiment: Inhibition of N-terminal His6-tagged recombinant full length SARS-CoV-2 3CLpro expressed in Escherichia coli BL21(DE3) assessed as inhibition constant using MCA-AVLQSGFR-Lys(Dnp)-Lys-NH2 as fluorogenic substrate incubated for 3 hrs by FRET assay
[5] = molecular target: Replicase polyprotein 1ab (Severe acute respiratory syndrome coronavirus 2) (UniProt P0DTD1); experiment: Inhibition of N-terminal His6-tagged recombinant full length SARS-CoV-2 3CLpro expressed in Escherichia coli BL21(DE3) assessed as Kobs, ratio of Kinact/Ki using MCA-AVLQSGFR-Lys(Dnp)-Lys-NH2 as fluorogenic substrate incubated for 3 hrs by FRET assay
SARS-CoV-2 = experiment: microbe, parasite or virus in culture; conditions: Severe acute respiratory syndrome coronavirus 2, B1.617.2 (Delta), Vero C1008, 24 h
Procathepsin L [6] = molecular target: T3, Procathepsin L; experiment: Inhibition of Cathepsin L (unknown origin) using Z-VVR-AMC as fluorogenic substrate preincubated for 10 mins followed by substrate addition and measured for 10 mins by fluorescence based assay
Target sequence in this assay (P07711 whole entry): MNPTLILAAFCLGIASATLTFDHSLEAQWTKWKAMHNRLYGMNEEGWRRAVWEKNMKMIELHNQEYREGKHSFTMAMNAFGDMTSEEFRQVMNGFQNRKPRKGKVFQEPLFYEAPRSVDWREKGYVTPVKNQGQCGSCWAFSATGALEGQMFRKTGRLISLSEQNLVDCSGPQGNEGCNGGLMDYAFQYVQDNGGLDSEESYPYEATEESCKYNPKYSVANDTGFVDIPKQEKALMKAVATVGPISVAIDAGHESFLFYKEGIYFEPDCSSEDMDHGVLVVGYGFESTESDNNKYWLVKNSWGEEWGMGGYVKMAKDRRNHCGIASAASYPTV

SMILES: N#CSCC(=O)N1c2ccccc2Sc2ccc(Cl)cc21
- IC50 [1]: 0.524 µM

SMILES: CCC(=O)c1ccc2c(c1)N(C(=O)CSC#N)c1ccccc1S2
- IC50 [1]: 3.33 µM

SMILES: N#CSCC(=O)N1c2ccccc2CCc2ccccc21
- IC50 [1]: 2.21 µM
- IC50 [2]: > 100 µM
- IC50 (Chymotrypsin): > 100 µM
- IC50 (Cathepsin B): > 50 µM
- IC50 (Cathepsin G): > 50 µM
- inhibition (Procathepsin L [3]): 70.3%
- IC50 (Caspase-6): > 50 µM
- Ki [4]: 43.6 µM
- Kobs [5]: 327 M⁻¹ s⁻¹

SMILES: N#CSCC(=O)N1c2ccccc2Oc2ccccc21
- IC50 [1]: 3.96 µM
- EC50 (SARS-CoV-2): 5.38 µM

SMILES: COc1ccc2c(c1)N(C(=O)CSC#N)c1ccccc1S2
- IC50 [1]: 2.9 µM

SMILES: N#CSCC(=O)N1c2ccccc2Sc2ccccc21
- IC50 [1]: 1.85 µM

SMILES: CCSc1ccc2c(c1)N(C(=O)CSC#N)c1ccccc1S2
- IC50 [1]: 2.64 µM

SMILES: N#CSCC(=O)N1c2ccccc2Sc2ccc(C(F)(F)F)cc21
- IC50 [1]: 4.6 µM
- EC50 (SARS-CoV-2): 3.14 µM

SMILES: N#CSCC(=O)N1c2ccccc2Sc2ccc(C#N)cc21
- IC50 [1]: 0.322 µM
- IC50 [2]: > 100 µM
- IC50 (Chymotrypsin): > 100 µM
- IC50 (Cathepsin B): > 50 µM
- IC50 (Procathepsin L [6]): > 100 µM
- IC50 (Cathepsin G): > 50 µM
- IC50 (Caspase-6): > 50 µM
- Ki [4]: 18.1 µM
- Kobs [5]: 1670 M⁻¹ s⁻¹

SMILES: CC(=O)c1ccc2c(c1)N(C(=O)CSC#N)c1ccccc1S2
- IC50 [1]: 1.06 µM

SMILES: N#CSCC(=O)N1c2ccccc2CCc2ccc(Cl)cc21
- IC50 [1]: 0.478 µM
- Ki [4]: 24.9 µM
- EC50 (SARS-CoV-2): 2.5 µM
